Experiment: xn = mol fraction of the nth substance listed

c1ccc2ccccc2c1 + Cc1ccccc1
Settings | viscosity [mPa·s]
293.15 K, 101.3 kPa, x1 = 0.00773 | 0.6067
293.15 K, 101.3 kPa, x1 = 0.01364 | 0.606
293.15 K, 101.3 kPa, x1 = 0.02032 | 0.6117
293.15 K, 101.3 kPa, x1 = 0.02587 | 0.616
293.15 K, 101.3 kPa, x1 = 0.03281 | 0.6241
293.15 K, 101.3 kPa, x1 = 0.03882 | 0.6277
293.15 K, 101.3 kPa, x1 = 0.04399 | 0.6308
298.15 K, 101 kPa, x1 = 0.0419 | 0.5848
298.15 K, 101 kPa, x1 = 0.1026 | 0.6394
298.15 K, 101 kPa, x1 = 0.1533 | 0.6866
298.15 K, 101 kPa, x1 = 0.2127 | 0.747
298.15 K, 101.3 kPa, x1 = 0.00773 | 0.5676
298.15 K, 101.3 kPa, x1 = 0.01364 | 0.5709
298.15 K, 101.3 kPa, x1 = 0.02032 | 0.5768
298.15 K, 101.3 kPa, x1 = 0.02587 | 0.581
298.15 K, 101.3 kPa, x1 = 0.03281 | 0.5863
298.15 K, 101.3 kPa, x1 = 0.03882 | 0.591
298.15 K, 101.3 kPa, x1 = 0.04399 | 0.5948
303.15 K, 101 kPa, x1 = 0.3218 | 0.7855
308.15 K, 101 kPa, x1 = 0.3218 | 0.747
308.15 K, 101 kPa, x1 = 0.3709 | 0.8101
313.15 K, 101 kPa, x1 = 0.3218 | 0.7058
313.15 K, 101 kPa, x1 = 0.3709 | 0.7571
313.15 K, 101.3 kPa, x1 = 0.00773 | 0.4785
313.15 K, 101.3 kPa, x1 = 0.01364 | 0.4809
313.15 K, 101.3 kPa, x1 = 0.02032 | 0.4846
313.15 K, 101.3 kPa, x1 = 0.02587 | 0.4888
313.15 K, 101.3 kPa, x1 = 0.03281 | 0.4919
313.15 K, 101.3 kPa, x1 = 0.03882 | 0.4951
313.15 K, 101.3 kPa, x1 = 0.04399 | 0.4995
318.15 K, 101 kPa, x1 = 0.3218 | 0.661
318.15 K, 101 kPa, x1 = 0.3709 | 0.7105
323.15 K, 101 kPa, x1 = 0.3218 | 0.627
323.15 K, 101 kPa, x1 = 0.3709 | 0.672
323.15 K, 101.3 kPa, x1 = 0.00773 | 0.4281
323.15 K, 101.3 kPa, x1 = 0.01364 | 0.4311
323.15 K, 101.3 kPa, x1 = 0.02032 | 0.4342
323.15 K, 101.3 kPa, x1 = 0.02587 | 0.4374
323.15 K, 101.3 kPa, x1 = 0.03882 | 0.4433
323.15 K, 101.3 kPa, x1 = 0.04136 | 0.4401
323.15 K, 101.3 kPa, x1 = 0.04399 | 0.4469

c1ccc2ccccc2c1 + CC(C)=O
viscosity [mPa·s], 101 kPa
Settings | 298.15 K | 303.15 K | 308.15 K | 313.15 K
x1 = 0.1688 | 0.487 | 0.464 | 0.4428 | 0.4207
x1 = 0.2356 | 0.5618 | 0.5296 | 0.5029 | 0.4781

C1CCOC1 + CCCCCC
Settings | viscosity [mPa·s]
293.15 K, 101 kPa, x1 = 0.1171 | 0.3234
293.15 K, 101 kPa, x1 = 0.23 | 0.3356
293.15 K, 101 kPa, x1 = 0.3386 | 0.349
293.15 K, 101 kPa, x1 = 0.4434 | 0.36
293.15 K, 101 kPa, x1 = 0.5444 | 0.3797
293.15 K, 101 kPa, x1 = 0.6418 | 0.4007
293.15 K, 101 kPa, x1 = 0.736 | 0.4207
293.15 K, 101 kPa, x1 = 0.8269 | 0.442
293.15 K, 101 kPa, x1 = 0.9149 | 0.465
298 K, 101 kPa, x2 = 0.0984 | 0.431
298 K, 101 kPa, x2 = 0.1946 | 0.407
298 K, 101 kPa, x2 = 0.2979 | 0.387
298 K, 101 kPa, x2 = 0.3518 | 0.374
298 K, 101 kPa, x2 = 0.4012 | 0.365
298 K, 101 kPa, x2 = 0.4477 | 0.357
298 K, 101 kPa, x2 = 0.4775 | 0.352
298 K, 101 kPa, x2 = 0.5496 | 0.342
298 K, 101 kPa, x2 = 0.6159 | 0.333
298 K, 101 kPa, x2 = 0.6436 | 0.33
298 K, 101 kPa, x2 = 0.7063 | 0.323
298 K, 101 kPa, x2 = 0.7549 | 0.318
298 K, 101 kPa, x2 = 0.7901 | 0.314
298 K, 101 kPa, x2 = 0.9039 | 0.303
298.15 K, 101 kPa, x1 = 0.1171 | 0.3025
298.15 K, 101 kPa, x1 = 0.23 | 0.3142
298.15 K, 101 kPa, x1 = 0.3386 | 0.3258
298.15 K, 101 kPa, x1 = 0.4434 | 0.3381
298.15 K, 101 kPa, x1 = 0.5444 | 0.357
298.15 K, 101 kPa, x1 = 0.6418 | 0.3736
298.15 K, 101 kPa, x1 = 0.736 | 0.3943
298.15 K, 101 kPa, x1 = 0.8269 | 0.415
298.15 K, 101 kPa, x1 = 0.9149 | 0.4365
303.15 K, 101.33 kPa, x1 = 0.0971 | 0.285
303.15 K, 101.33 kPa, x1 = 0.1966 | 0.295
303.15 K, 101.33 kPa, x1 = 0.3001 | 0.307
303.15 K, 101.33 kPa, x1 = 0.4 | 0.32
303.15 K, 101.33 kPa, x1 = 0.5034 | 0.334
303.15 K, 101.33 kPa, x1 = 0.5974 | 0.349
303.15 K, 101.33 kPa, x1 = 0.7066 | 0.369
303.15 K, 101.33 kPa, x1 = 0.7889 | 0.386
303.15 K, 101.33 kPa, x1 = 0.8992 | 0.41

Source: the CheMixHub viscosity set
